Experimental data published in patent US20210299176A1, “COMPOSITIONS AND METHODS FOR TREATING CANCER AND AUTOIMMUNE DISEASES” (CEDARS-SINAI MEDICAL CENTER, priority 2018, published 2021).

What was measured:
[1] = test system: CD4+CD25- cells (T effector cells); experiment: T cell suppression assay (CFSE proliferation of T effector cells, FACS); type: cell-based, human; conditions: for inhibition (decrease) of T cell proliferation: T effector without T-reg
Source text: FIGS. 1A-1B show the results of where PBMC was isolated (Ficoll, GE Healthcare) from the WBC cone collected from healthy platelet donor. Cells were washed and passed through 40 um cell strainer before being stained with T cell surface antibodies. Then cells were put on cell sorter (BD FACSARIA III). Specific cell populations were collected as follows: CD4^+CD25^− cells (T effector cells), CD4^+CD25^+CD45RA^+CD127^− cells (T regulatory cells) and CD3^− cells (serve as Antigen Presenting Cells, APC). T effector cells were labeled with CellTrace CFSE (Invitrogen), heavily washed before cell number counting. Effector cells and T-regs were then mixed together at 1:1 ratio in culture media (RPMI 1640, 10% FBS, Pen-Strep and 1% NEAA) which enhanced with anti-CD3 (3 ug/ml) anti-CD28 (2 ug/ml) antibodies. APCs were treated with Mitomycin (50 ug/ml) for 30 minutes at 37° C., 5% CO2 incubator, then added to culture mix (APC:T-eff 2:1) as a proliferation co-stimulator. Cell mixture was incubated at 37° C., 5% CO2 for 6 days before being re-stained with T cell surface markers (CD4, CD25) and sent for FACS analysis. (A) T-eff fully stimulated; (B) T-eff fully stimulated+T-reg (1:1).
PBMC was isolated and specific human T cell populations were collected as follows: CD4^+CD25^− cells (T effector cells), CD4^+CD25^+CD45RA^+CD127^− cells (T regulatory cells) and CD3^− cells (serve as Antigen Presenting Cells, APC). T effector cells were labeled with CellTrace CFSE and effector cells and T-regs were then mixed together at 1:1 ratio in culture media (RPMI 1640, 10% FBS, Pen-Strep and 1% NEAA) which enhanced with anti-CD3 (3 ug/ml) anti-CD28 (2 ug/ml) antibodies. APCs were treated with Mitomycin (50 ug/ml) for 30 minutes at 37° C., 5% CO2 incubator, then added to culture mix (APC:T-eff 2:1) as a proliferation co-stimulator, incubated, and sent for FACS analysis. Molecule 11702 agonist and 11704 antagonist were added to treat groups respectively at a concentration gradient of 5 uM, 25 uM and 50 uM.
PBMC was isolated (Ficoll, GE Healthcare) from the WBC cone collected from healthy platelet donor. Cells were washed and passed through 40 um cell strainer before being stained with T cell surface antibodies. Then cells were put on cell sorter (BD FACSARIA III). Specific cell populations were collected as follows: CD4^+CD25^− cells (T effector cells), CD4^+CD25^+CD45RA^+CD127^− cells (T regulatory cells) and CD3^− cells (serve as Antigen Presenting Cells, APC). T effector cells were labeled with CellTrace CFSE (Invitrogen), heavily washed before cell number counting. Effector cells and T-regs were then mixed together at 1:1 ratio in culture media (RPMI 1640, 10% FBS, Pen-Strep and 1% NEAA) which enhanced with anti-CD3 (3 ug/ml) anti-CD28 (2 ug/ml) antibodies. […]

B16 melanoma = B16 melanoma implantation in C57 BL mice, treatment with GITR agonist; type: in vivo; conditions: intraperitoneal 30 mg/kg twice per week vs DMSO control; p=0.0333, log rank
Procedure: After implantation of B16 melanoma, C57 BL mice underwent treatment with 11702 GITR agonist or DMSO control. (A) Animals lived longer after GITR agonist intraperitoneal 30 mg/kg treatment twice per week (p=0.0333, log rank). (B) Tumor volume was inhibited in 11702 treated animals (p<0.05, Anova).
After implantation of B16 melanoma, C57 BL mice underwent treatment with 11702 GITR agonist or DMSO control. […] (B) Tumor volume was inhibited in 11702 treated animals (p<0.05, Anova).

Compound	inhibition at 50 µM ([1]; Homo sapiens, T-cell, T effector + T-reg (1:1), 50 uM, read-out: inhibition (decrease) of proliferation compared to base line)	effect on T effector cell population ([1]; T cell suppression assay, with and without Tregs, more effective in the presence of Tregs)	inhibition (decrease) of T cell proliferation ([1]; 5 uM)	inhibition (decrease) of T cell proliferation ([1]; 25 um)	survival of animals (B16 melanoma)
O=C(CCCCC(=O)NN=Cc1cccc(O)c1)NN=Cc1cccc(O)c1 [RMGL171104]	55.9%	dose dependent retraction of T effector cells	no significant effect	no significant effect	
OCC1OC(Nc2ccc(-c3ccc(NC4CC(O)C(CO)O4)cc3)cc2)CC1O (centres unmarked) [RMGL171102]					lived longer
